Source: US10607721B2, “High-throughput, multi-omics approach to determine and validate de novo global mechanisms of action for drugs and toxins” (Vanderbilt University, priority 2015, dated 2020)

Columns and labels:
Assay type in all cases: cell-based, Human
A549 cells [1] = assay: Multi-omics analysis (transcriptome, proteome, phosphoproteome, metabolome)
Procedure: Samples were analyzed for transcriptome changes by RNA sequencing at the Genomics Services Lab, HudsonAlpha, for proteome changes by label free, SILAC, and phospho-enriched SILAC LC-MS/MS, and metabolome changes by UPLC-IM-MS and data-independent acquisition (MSE) using both hydrophilic-interaction liquid chromatography and reverse phase liquid chromatography.
For proteomic and metabolomic label-free analyses, five sterile indium tin oxide (ITO)-coated glass slides (Delta Technologies) were placed in a tissue culture flask with removable lid (TPP). […] For proteomic analyses, slides were removed and washed 3 times with PBS, placed on dry ice, flash-frozen in liquid nitrogen, and stored at −80° C. prior to lysis. For metabolomics analysis, slides were washed in 50 mM ammonium formate.
For SILAC experiments, A549 cells were cultured in SILAC media for two weeks to ensure isotopic amino acid incorporation (verified by proteomic analysis). […] Following treatment cells were washed 3 times with 4° C. PBS. For phospho-SILAC, cells were washed with 4° C. PBS containing 1 mM sodium orthovanadate.
RNA was isolated using the RNeasy Mini Kit (Qiagen). For each time point, untreated and cisplatin-treated samples were isolated in triplicate and analyzed by the Genomics Services Lab at HudsonAlpha. RNAseq was performed using poly(A) selection on an Illumina HiSeq v4 sequencing platform. Reads were paired-end with a read length of 50 bp and 50 million reads per sample.
Cells were scraped from slides and lysed in 300 μL of 50 mM Tris pH 8, 150 mM NaCl, 1% Nonidet 40, 1 mM EDTA with added HALT Protease Inhibitor Cocktail (Thermo Scientific), centrifuged, and assayed for protein concentration (BCA Protein Assay, Thermo Scientific Pierce) using a SpectraMax M2e Microplate Reader with SoftMax Pro software version 5 (Molecular Devices). Aliquots of 100 μg of protein were acetone precipitated in six times the volume for 2 h at −80° C. Precipitates were washed three times with cold acetone and reconstituted in 10 μL of neat trifluoroethanol (TFE) and 10 μL of 100 mM Tris (pH 8.0). Samples were reduced with 1 μL of 0.5 M Tris(2-carboxyethyl)phosphine hydrochloride (TCEP) for 30 minutes at room temperature and alkylated with 2 μL of 0.5 M IAA for 30 minutes at room temperature in the dark. Samples were diluted with 100 mM Tris (pH 8.0) to obtain a final solution containing 10% TFE. The samples were digested with 2 μg of trypsin (a ratio of 50:1 protein 273 to enzyme) overnight at 37° C. A solution of 60% formic acid (FA) was added to the samples until they reached pH 3. Aliquots of 5 μg of digested sample were desalted using C18 spin tips (Protea) according to the supplied protocol and dried samples were reconstituted in 15 μL of 0.1% FA. Five replicates of cisplatin treated and control (untreated) cells were prepared in parallel.
Samples were analyzed on a Thermo Scientific Orbitrap Fusion Tribrid mass spectrometer in line with a Thermo Scientific Easy-nLC 1000 UHPLC system. Samples, 2 μL, were injected via the autosampler and loaded onto a Thermo Scientific Acclaim PepMap 100 C18 UHPLC column (75 μm×250 mm, 2 μm particle size, 100 Å pore size), with 0.1% FA in water (mobile phase A). Peptides were separated over a 140 minute two-step gradient with initial conditions set to 100% mobile phase A for 5 minutes before ramping to 20% mobile phase B, 0.1% FA in ACN, over 100 minutes and then 32% mobile phase B over 20 minutes. The remainder of the gradient was spent washing at 95% mobile phase B and returning to initial conditions. Eluted peptides were ionized via positive mode nanoelectrospray ionization (nESI) using a Nanospray Flex ion source (Thermo Fisher Scientific). The mass spectrometer was operated using a 3 second top speed data-dependent acquisition mode. Fourier transform mas spectra (FTMS) were collected using 120,000 resolving power, an automated gain control (AGC) target of 200,000, and a maximum injection time of 50 ms. […]

A549 cells [2] = assay: Apoptosis assay (ApoONE, caspase 3/7 activation); conditions: 50 μM cisplatin
Procedure: Cell viability and apoptosis were assessed by CellTiter Glo (Promega) and ApoONE (Promega) kits, respectively. Molecular changes were screened using a MALDI-FTICR MS platform.
Human lung carcinoma A549 cells were obtained from ATCC (Manassas, Va.) and cultured in Dulbecco's Modified Eagle's Medium (DMEM, Gibco) with 10% v/v heat-inactivated fetal bovine serum (Atlanta Biologicals) and 1% v/v penicillin/streptomycin (P/S) (Gibco) at 37° C. with 5% CO2 atmosphere. Stable isotope labeling by amino acids in cell culture (SILAC) media were prepared using SILAC DMEM (Thermo Scientific) containing 10% v/v dialyzed heat-inactivated FBS (Fisher), 1% v/v P/S, proline (250 mg/L) (Thermo Scientific), and appropriate light and heavy labeled arginine (84 mg/L), lysine (146 mg/L). […]
At each time point, cell viability and apoptosis were assessed by CellTiter-Glo (Promega) and ApoONE (Promega) kits, respectively. Plates were incubated at 37° C. in a plate reader (BioTek) with data 174 acquisition every 10 min by luminescence (1 s read time, 200 gain) and fluorescence (485 nm excitation, 528 nm emission). […] Cell viability was also assessed using the LIVE/DEAD Viability/Cytotoxicity Kit for mammalian cells (ThermoFisher). […]

A549 cells [3] = assay: Molecular screening assay (MALDI FTICR MS, molecular variance score)
Procedure: After incubation for the respective times, wells were washed 3 times with PBS and stored at −80° C. The effect of different toxin dosage amounts and exposure times on the molecular content of a sample may be evaluated and reported directly for thousands of molecular species based upon the mass spectra that were collected for each of the samples. A comparison of the mass-to-charge (m/z) peak content between spectra from dosed cells and a reference spectrum from a non-dosed control sample delivers a mass spectrometric assessment of toxicity-induced molecular variation. However, seeking a data-driven global comparison instead of focusing on specific molecular species of interest makes the assessment of molecular change between the different experimental conditions very complex and high-dimensional. To determine which dosage amount induces the greatest molecular change, the inventors developed a quick and broad assessment of toxicity-induced molecular variance summarizing the entire recorded mass range. […]
Within each time point (represented by a 24-well plate), seven different dosage conditions were measured: six different toxin dosages and one reference condition (e.g., untreated). Per dosage condition there were nine distinct replicate measurements made: each dosage condition was represented by three replicate wells, from which three technical replicate spectra were measured per well. […]

[4] = 50 μM cisplatin for 1, 6, 24 and 48 h

## N.N.[Cl][Pt][Cl] [cisplatin]
A549 cells [1]; 50 μM cisplatin
  BAD phosphorylation (pSer75 at 48 h; pSer118 at 24 h and 48 h): increased
A549 cells [1]; [4]
  share of unique detected species significantly changed: 24%
  unique species significantly changed: 13,483
A549 cells [1]; 50 μM cisplatin, 1, 6, 24, 48 h
  phosphorylated ERK1 and/or ERK2 (pThr202/pTyr204; pThr185/pTyr187): increased at each time point
A549 cells [1]; 50 μM cisplatin, 6 and 24 h
  ATP1A1 peptides: decreased significantly
A549 cells [1]; 50 μM cisplatin, 1 h
  CUL4B C-terminal peptide: increased
A549 cells [1]; 50 μM cisplatin, 6 h
  Ncx1 transcript: significant decrease
A549 cells [1]; 50 μM cisplatin, 24 h
  BAK1: increased
  CASP9 transcript: downregulation
  phosphorylated mTOR at pS1166: increased
A549 cells [1]; 50 μM cisplatin, 48 h
  HUWE1 abundance: decreased
A549 cells [1]; 50 μM cisplatin, beginning at 24 h
  p53 pSer392: increased significantly
A549 cells [1]; 50 μM cisplatin, starting at 6 h
  p53 pSer313, pSer314 and/or pSer315: increased significantly
A549 cells [1]; 50 μM cisplatin, E1 up at 1 h, E1 and E2 up at 6 h, decreased by 24 h
  estrogen species (E1, E2): transiently increased
A549 cells [1]; 50 μM cisplatin, no proteomic abundance changes
  BAX, CYCS, APAF1 and CASP3 transcripts: transcriptional upregulation
A549 cells [2]
  caspase activation over time: ceased after 48 h
  time of maximal caspase activation: 24 h
A549 cells [3]; 50 μM
  earliest time at which cisplatin-induced toxicity is measurable: ≤ 1 h
A549 cells [3]; exposure 1 and 6 h molecular screen, 24 h caspase assay
  optimal dose (maximum response in physiological and molecular screen, cell viability >50%): 50 μM
